# Values quoted from earlier work, collected in patent US20070281009A1, “N-Acetylglucosamine Tablet Disintegrating In Oral Cavity And Process For Producing The Same” (Yaizu Suisankagaku Industry Co., Ltd., priority 2004, published 2007).
# Legend:
# [1] = test system: arthropathy; conditions: human, 500 mg/day or 1,000 mg/day dissolved in milk
# [2] = test system: skin beauty; conditions: human, oral, 1,000 mg/day
# [3] = test system: synthesis of hyaluronic acid
Structure (SMILES),Effect of ameliorating arthropathy [1],Effect on enhancing skin beauty [2],Ability to promote synthesis of hyaluronic acid [3]
CC(=O)N[C@H]1C(O)O[C@H](CO)[C@@H](O)[C@@H]1O (stereo partly drawn) [N-acetylglucosamine],confirmed to provide an effect of ameliorating arthropathy,effective,
CC1=C(/C=C/C(C)=C/C=C/C(C)=C/C=C/C=C(C)/C=C/C=C(C)/C=C/C2=C(C)CCCC2(C)C)C(C)(C)CCC1 [β-carotene],,,known to have an ability to promote synthesis of hyaluronic acid
